≈ marks a conversion by molar mass, not a printed value. Calls of active or inactive are those of the source. No cut-off for these calls is given here.
What was measured:
Mycobacterium leprae [1] = assay: Inhibition of Mycobacterium leprae DNA gyrase subunit A A91V mutant assessed as DNA supercoiling inhibition
Mycobacterium leprae [2] = assay: (§1) Inhibition of Mycobacterium […] A A91V mutant assessed as formation of DNA cleavable complex
Mycobacterium leprae [3] = assay: Inhibition of Mycobacterium […] B D205N mutant assessed as DNA supercoiling inhibition
Mycobacterium leprae [4] = assay: Inhibition of Mycobacterium leprae DNA gyrase subunit A G89C mutant assessed as DNA supercoiling inhibition
Mycobacterium leprae [5] = assay: Inhibition of Mycobacterium leprae wild type DNA gyrase A2B2 assessed as formation of DNA cleavable complex
Mycobacterium leprae [6] = assay: Selectivity index, ratio of CC25 for Mycobacterium leprae DNA gyrase subunit A A91V mutant to CC25 for Mycobacterium leprae wild type DNA gyrase A2B2 by DNA cleavage assay
Mycobacterium leprae [7] = assay: Inhibition of Mycobacterium leprae wild type DNA gyrase A2B2 assessed as DNA supercoiling inhibition
Mycobacterium leprae [8] = assay: Selectivity index, ratio of IC50 for Mycobacterium leprae DNA gyrase subunit A A91V mutant to IC50 for Mycobacterium leprae wild type DNA gyrase A2B2
Mycobacterium leprae [9] = assay: Selectivity index, ratio of IC50 for Mycobacterium leprae DNA gyrase subunit A G89C mutant to IC50 for Mycobacterium leprae wild type DNA gyrase A2B2
[10] = system: Mycobacterium leprae [A91V]; assay: as §1
Mycobacterium leprae [11] = assay: Inhibition of Mycobacterium […] B D205N mutant assessed as formation of DNA cleavable complex

SMILES | IC50 (Mycobacterium leprae [1]) [µg/mL] | CC25 (Mycobacterium leprae [2]) [µg/mL] | IC50 (Mycobacterium leprae [3]) [µg/mL] | IC50 (Mycobacterium leprae [4]) [µg/mL] | CC25 (Mycobacterium leprae [5]) | fold change (FC) (Mycobacterium leprae [6]) | IC50 (Mycobacterium leprae [7]) [µg/mL] | fold change (FC) (Mycobacterium leprae [8]) | fold change (FC) (Mycobacterium leprae [9]) | CC25 [10] | CC25 (Mycobacterium leprae [11])
C[C@H]1NCc2cc(-c3ccc4c(=O)c(C(=O)O)cn(C5CC5)c4c3OC(F)F)ccc21 [GARENOXACIN] | 8 (≈ 18.8 µM) | 17 (≈ 39.9 µM) | 16 (≈ 37.5 µM) | 5 (≈ 11.7 µM) | 1 µg/mL (≈ 2.35 µM) | 17 | 6 (≈ 14.1 µM) |  |  |  | 
COc1c(N2CCNC(C)C2)c(F)cc2c(=O)c(C(=O)O)cn(C3CC3)c12 (stereo unspecified) [GATIFLOXACIN] | 20 (≈ 53.3 µM) | 4 (≈ 10.7 µM) | 4.5 (≈ 12 µM) | 20 (≈ 53.3 µM) | 0.3 µg/mL (≈ 0.799 µM) | 12 | 3.5 (≈ 9.32 µM) | 5 |  |  | 
COc1c(N2C[C@@H]3CCCN[C@@H]3C2)c(F)cc2c(=O)c(C(=O)O)cn(C3CC3)c12 [MOXIFLOXACIN] | 25 (≈ 62.3 µM) |  |  | 30 (≈ 74.7 µM) |  |  | 6 (≈ 14.9 µM) | 5 | 3 |  | 
CCn1cc(C(=O)O)c(=O)c2ccc(C)nc21 [NALIDIXIC ACID] | 170 (≈ 732 µM) |  | 600 (≈ 2580 µM) | 150 (≈ 646 µM) | inactive |  |  |  |  | inactive | inactive
CO[C@@H]1[C@@H](OC(N)=O)[C@@H](O)[C@H](Oc2ccc3c(O)c(NC(=O)c4ccc(O)c(CC=C(C)C)c4)c(=O)oc3c2C)OC1(C)C [NOVOBIOCIN] | 0.2 (≈ 0.326 µM) |  | 0.3 (≈ 0.49 µM) | 0.3 (≈ 0.49 µM) |  |  | 0.25 (≈ 0.408 µM) |  |  |  | 
CC1COc2c(N3CCN(C)CC3)c(F)cc3c(=O)c(C(=O)O)cn1c23 (stereo unspecified) [OFLOXACIN] | 80 (≈ 221 µM) | 110 (≈ 304 µM) | 20 (≈ 55.3 µM) | 160 (≈ 443 µM) | 9 µg/mL (≈ 24.9 µM) | 12 | 15 (≈ 41.5 µM) | 5 |  |  | 8 µg/mL (≈ 22.1 µM)
CCn1cc(C(=O)O)c(=O)c2cc3c(cc21)OCO3 [OXOLINIC ACID] | 200 (≈ 766 µM) |  | 700 (≈ 2680 µM) | 180 (≈ 689 µM) | inactive |  | 400 (≈ 1530 µM) |  |  | inactive | inactive

— ChEMBL document CHEMBL1153562, “Are all the DNA gyrase mutations found in Mycobacterium leprae clinical strains involved in resistance to fluoroquinolones?” (Antimicrob Agents Chemother, 2008)
